Data: paper PMC8956739, “A synthetic lipopeptide targeting top-priority multidrug-resistant Gram-negative pathogens” (Nature Communications, 2022)
Converted amounts (≈) assume the structure as drawn. “And” between values parts separate entries of the source, which are not always exact repeats. Equal entries are not always repeated. Residues, ends and D or L forms follow the SMILES beside them.

Experiments:
[1] = tested on: P. aeruginosa ATCC 27853; type: cell-based, Pseudomonas aeruginosa
Method: (§1) MICs were determined in cation-adjusted Mueller–Hinton broth (CaMHB) by the broth micro-dilution method against ATCC strains and clinical isolates. MICs in the presence of Survanta® were determined as described above against P. aeruginosa ATCC 27853. In the 100 μL of fresh CaMHB containing polymyxins, 10% Survanta® (v/v, 2.5 mg/mL phospholipids) was added. MICs in the presence and absence of Survanta® were compared to determine the effect of binding to lung surfactant on the antibacterial activity of polymyxins.

[2] = tested on: P. aeruginosa FADDI-PA025; type: cell-based, Pseudomonas aeruginosa; conditions: FADDI-PA025
Method: as §1

[3] = tested on: P. aeruginosa FADDI-PA038; type: cell-based, Pseudomonas aeruginosa; conditions: FADDI-PA038
Method: as §1

[4] = tested on: Swiss mice, kidney; assay: Nephrotoxicity in mice (kidney histopathology); type: in vivo, mouse; conditions: for Kidney histopathology (SQS Score): 72 mg/kg/d subcutaneously in six divided doses every 2 h, n = 3; for Kidney histopathology, mice with the SQS score: mouse, in vivo
Method: The experimental methodology has been previously reported by our group. Briefly, individual lipopeptide solutions were prepared in sterile saline (6 mg/mL). Swiss mice (female, 7-week-old, 22–28 g) were subcutaneously administered at 12 mg/kg in, 6 doses every 2 h to reach a total dose of 72 mg/kg (n = 3). For high-dose nephrotoxicity experiments, mice were intraperitoneally administered at 20 or 25 mg/kg, in 6 doses every 2 h to reach a total dose of 120 mg/kg (n = 6) or 150 mg/kg (n = 3). At 20 h after the last dose, the right kidney from each mouse was collected and placed in 10% buffered (pH 7.4) formalin (Sigma-Aldrich, Castle Hill, NSW, Australia). The kidneys were subjected to histological examination at the Australian Phenomics Network-Histopathology and Organ Pathology (University of Melbourne, Parkville, VIC, Australia), who was blind to the treatment groups.

[5] = tested on: A. baumannii FADDI-AB030; type: cell-based, Acinetobacter baumannii; conditions: FADDI-AB030
Method: as §1

[6] = tested on: A. baumannii ATCC 19606; type: cell-based, Acinetobacter baumannii; conditions: ATCC 19606
Method: as §1

[7] = tested on: A. baumannii FADDI-AB034; type: cell-based, Acinetobacter baumannii; conditions: FADDI-AB034
Method: as §1

[8] = tested on: P. aeruginosa ATCC 27853; assay: Neutropenic mouse bloodstream infection model; type: in vivo; conditions: single IV dose 4 mg/kg; for Log10 CFU/mL blood at 4 h, Mean / Δlog10 CFU/mL blood (mean) / Log10 CFU/mL blood at 4 h, single mouse: 4 h; for Δlog10 CFU/mL blood (mean): treated minus control, mean of replicates; for Δlog10 CFU/mL blood (mean) / Log10 CFU/mL blood at 4 h, single mouse / Delta Log10 CFU/mL blood at 4 h, single mouse: 4 mg/kg; for Delta Log10 CFU/mL blood at 4 h, single mouse: treated mouse minus mean of vehicle mice
Method: The experimental methodology for the neutropenic mouse bloodstream infection model was described previously. Briefly, 7-week-old female Swiss mice (22–28 g) were rendered neutropenic by intraperitoneal administration of cyclophosphamide, 4 days (150 mg/kg) and 1 day (100 mg/kg) prior to inoculation. Bloodstream infection was established by intravenous administration of a 50 µL bolus of early log-phase bacterial suspension (4 × 10^8 CFU/mL). Lipopeptide solutions were prepared at 1 mg/mL (free base) in sterile saline. At 2 h after inoculation, mice (n = 3) were injected intravenously with lipopeptide solution at 4 mg/kg (free base) or saline control. At 0 and 4 h after administration, blood was collected, diluted serially in sterile saline, and plated on nutrient agar plates. Agar plates were incubated at 37 °C overnight for bacterial colony counting and the bacterial load in the blood (log10 CFU/mL) in each mouse was calculated. In vivo efficacy was calculated as the difference of the log10 CFU/mL blood values between the treated mice and the saline-treated mice at 4 h post dosing (Δlog10 CFU/mL blood = log10 [treated] CFU/mL blood − log10[control] CFU/mL blood).

[9] = tested on: K. pneumoniae FADDI-KP032; type: cell-based, Klebsiella pneumoniae; conditions: FADDI-KP032
Method: as §1

[10] = tested on: K. pneumoniae FADDI-KP065; type: cell-based, Klebsiella pneumoniae; conditions: FADDI-KP065
Method: as §1

CCCCCCCC(=O)N[C@@H](CCN)C(=O)N[C@H](C(=O)N[C@@H](CCN)C(=O)N[C@H]1CCNC(=O)[C@H]([C@@H](C)O)NC(=O)[C@H](CCN)NC(=O)[C@H](CCN)NC(=O)[C@H](CO)NC(=O)[C@@H](CC(C)C)NC(=O)[C@H](CCN)NC1=O)[C@@H](C)O [Lipopeptide F227] (HELM PEPTIDE1{[CCCCCCCC(=O)[*:2]].[Dab].T.[Dab].[Dab].[Dab].[dL].S.[Dab].[Dab].T}$PEPTIDE1,PEPTIDE1,5:R3-11:R2$$$V2.0)
MIC P. aeruginosa ATCC 27853 ([1]; ATCC 27853): 0.5 mg/L (≈ 0.443 µM) | MIC P. aeruginosa FADDI-PA025 [2]: >32 mg/L | MIC P. aeruginosa FADDI-PA038 [3]: >32 mg/L | Kidney histopathology (SQS Score) [4]: 0 (SQS 0 = no significant change (overall score, <1)) | Kidney histopathology, mice with the SQS score [4]: 3/3 | MIC A. baumannii FADDI-AB030 [5]: 4 mg/L (≈ 3.54 µM) | MIC A. baumannii ATCC 19606 [6]: 8 mg/L (≈ 7.08 µM) | MIC A. baumannii FADDI-AB034 [7]: 4 mg/L (≈ 3.54 µM) | Log10 CFU/mL blood at 4 h, Mean [8]: 6.47 Log10 CFU/mL blood | Δlog10 CFU/mL blood (mean) [8]: −1.04 log10 CFU/mL blood | Log10 CFU/mL blood at 4 h, single mouse [8]: 6.74 Log10 CFU/mL blood and 5.57 Log10 CFU/mL blood and 7.10 Log10 CFU/mL blood | Delta Log10 CFU/mL blood at 4 h, single mouse [8]: -0.77 Log10 CFU/mL blood and -1.95 Log10 CFU/mL blood and -0.41 Log10 CFU/mL blood | MIC K. pneumoniae FADDI-KP032 [9]: 0.25 mg/L (≈ 0.221 µM) | MIC K. pneumoniae FADDI-KP065 [10]: 0.25 mg/L (≈ 0.221 µM)

CCCCCCCC(=O)N[C@@H](CCN)C(=O)N[C@H](C(=O)N[C@@H](CCN)C(=O)N[C@H]1CCNC(=O)[C@H]([C@@H](C)O)NC(=O)[C@H](CCN)NC(=O)[C@H](CCN)NC(=O)[C@H](CC(C)C)NC(=O)[C@@H]([C@H](C)O)NC(=O)[C@H](CCN)NC1=O)[C@@H](C)O [Lipopeptide F228] (HELM PEPTIDE1{[CCCCCCCC(=O)[*:2]].[Dab].T.[Dab].[Dab].[Dab].[dT].L.[Dab].[Dab].T}$PEPTIDE1,PEPTIDE1,5:R3-11:R2$$$V2.0)
MIC P. aeruginosa ATCC 27853 ([1]; ATCC 27853): 0.25 mg/L (≈ 0.219 µM) | MIC P. aeruginosa FADDI-PA025 [2]: 32 mg/L (≈ 28 µM) | MIC P. aeruginosa FADDI-PA038 [3]: 32 mg/L (≈ 28 µM) | Kidney histopathology (SQS Score) [4]: +1 (SQS + 1 = mild damage (overall score, 1 to <15)) | Kidney histopathology, mice with the SQS score [4]: 1/3 | MIC A. baumannii FADDI-AB030 [5]: 16 mg/L (≈ 14 µM) | MIC A. baumannii ATCC 19606 [6]: >32 mg/L | MIC A. baumannii FADDI-AB034 [7]: 32 mg/L (≈ 28 µM) | Log10 CFU/mL blood at 4 h, Mean [8]: 4.13 Log10 CFU/mL blood | Δlog10 CFU/mL blood (mean) [8]: −3.39 log10 CFU/mL blood | Log10 CFU/mL blood at 4 h, single mouse [8]: 3.99 Log10 CFU/mL blood and 4.11 Log10 CFU/mL blood and 4.28 Log10 CFU/mL blood | Delta Log10 CFU/mL blood at 4 h, single mouse [8]: -3.52 Log10 CFU/mL blood and -3.40 Log10 CFU/mL blood and -3.24 Log10 CFU/mL blood | MIC K. pneumoniae FADDI-KP032 [9]: 2 mg/L (≈ 1.75 µM) | MIC K. pneumoniae FADDI-KP065 [10]: 16 mg/L (≈ 14 µM)

CCCCCCCC(=O)N[C@@H](CCN)C(=O)N[C@H](C(=O)N[C@@H](CN)C(=O)N[C@H]1CCNC(=O)[C@H]([C@@H](C)O)NC(=O)[C@H](CCN)NC(=O)[C@H](CCN)NC(=O)[C@H]([C@@H](C)O)NC(=O)[C@@H](CC(C)C)NC(=O)[C@H](CCN)NC1=O)[C@@H](C)O [Lipopeptide F251] (HELM PEPTIDE1{[CCCCCCCC(=O)[*:2]].[Dab].T.[NC[C@H](N[*:1])C(=O)[*:2]].[Dab].[Dab].[dL].T.[Dab].[Dab].T}$PEPTIDE1,PEPTIDE1,5:R3-11:R2$$$V2.0)
impact of lung surfactant on MIC ([1]; 10% Survanta vs none): slightly impacted | MIC P. aeruginosa ATCC 27853 ([1]; ATCC 27853): 0.5 mg/L (≈ 0.443 µM) | MIC, No Survanta ([1]; ATCC 27853): 0.5 mg/L (≈ 0.443 µM) | MIC P. aeruginosa FADDI-PA025 [2]: 8 mg/L (≈ 7.08 µM) | MIC P. aeruginosa FADDI-PA038 [3]: 0.5 mg/L (≈ 0.443 µM) | Kidney histopathology (SQS Score) [4]: 0 (SQS 0 = no significant change (overall score, <1)) | Kidney histopathology, mice with the SQS score [4]: 3/3 | MIC A. baumannii FADDI-AB030 [5]: 0.25 mg/L (≈ 0.221 µM) | MIC A. baumannii ATCC 19606 [6]: 0.5 mg/L (≈ 0.443 µM) | MIC A. baumannii FADDI-AB034 [7]: 0.25 mg/L (≈ 0.221 µM) | Log10 CFU/mL blood at 4 h, Mean [8]: 5.87 Log10 CFU/mL blood | Δlog10 CFU/mL blood (mean) [8]: −1.57 log10 CFU/mL blood | Log10 CFU/mL blood at 4 h, single mouse [8]: 6.12 Log10 CFU/mL blood and 5.83 Log10 CFU/mL blood and 5.67 Log10 CFU/mL blood | Delta Log10 CFU/mL blood at 4 h, single mouse [8]: -1.33 Log10 CFU/mL blood and -1.61 Log10 CFU/mL blood and -1.78 Log10 CFU/mL blood | MIC K. pneumoniae FADDI-KP032 [9]: <0.125 mg/L | MIC K. pneumoniae FADDI-KP065 [10]: <0.125 mg/L

CCCCCCCC(=O)N[C@@H](CCN)C(=O)N[C@H](C(=O)N[C@@H](CCCN)C(=O)N[C@H]1CCNC(=O)[C@H]([C@@H](C)O)NC(=O)[C@H](CCN)NC(=O)[C@H](CCN)NC(=O)[C@H]([C@@H](C)O)NC(=O)[C@@H](CC(C)C)NC(=O)[C@H](CCN)NC1=O)[C@@H](C)O [Lipopeptide F252] (HELM PEPTIDE1{[CCCCCCCC(=O)[*:2]].[Dab].T.[Orn].[Dab].[Dab].[dL].T.[Dab].[Dab].T}$PEPTIDE1,PEPTIDE1,5:R3-11:R2$$$V2.0)
MIC P. aeruginosa ATCC 27853 ([1]; ATCC 27853): 0.5 mg/L (≈ 0.432 µM) | MIC P. aeruginosa FADDI-PA025 [2]: >32 mg/L | MIC P. aeruginosa FADDI-PA038 [3]: 2 mg/L (≈ 1.73 µM) | Kidney histopathology (SQS Score) [4]: +1 (SQS + 1 = mild damage (overall score, 1 to <15)) | Kidney histopathology, mice with the SQS score [4]: 2/3 | MIC A. baumannii FADDI-AB030 [5]: 0.5 mg/L (≈ 0.432 µM) | MIC A. baumannii ATCC 19606 [6]: 1 mg/L (≈ 0.864 µM) | MIC A. baumannii FADDI-AB034 [7]: 1 mg/L (≈ 0.864 µM) | Log10 CFU/mL blood at 4 h, Mean [8]: 5.46 Log10 CFU/mL blood | Δlog10 CFU/mL blood (mean) [8]: −1.98 log10 CFU/mL blood | Log10 CFU/mL blood at 4 h, single mouse [8]: 5.30 Log10 CFU/mL blood and 5.91 Log10 CFU/mL blood and 5.19 Log10 CFU/mL blood | Delta Log10 CFU/mL blood at 4 h, single mouse [8]: -2.15 Log10 CFU/mL blood and -1.54 Log10 CFU/mL blood and -2.26 Log10 CFU/mL blood | MIC K. pneumoniae FADDI-KP032 [9]: <0.125 mg/L | MIC K. pneumoniae FADDI-KP065 [10]: 0.5 mg/L (≈ 0.432 µM)
